Data from ChEMBL document CHEMBL4680330, “Soloxolone methyl, as a 18βH-glycyrrhetinic acid derivate, may result in endoplasmic reticulum stress to induce apoptosis in breast cancer cells” (Bioorg Med Chem, 2021).
The source made the active and inactive calls. No cut-off for these calls is given here.

Key:
MCF7 [1] = assay: Induction of apoptosis in human MCF7 cells assessed as PARP level at 10 uM incubated for 24 hrs by Western blot analysis (reference value: 1); assay type: functional
MCF7 [2] = assay: Induction of cell death in human MCF7 cells assessed as downregulation of PARP gene at 10 uM incubated for 48 hrs by RT-PCR analysis; assay type: functional, cell-based
[3] = Induction of caspase 3/7 activity in human MDA-MB-231 cells assessed as induction of apoptosis by measuring early apoptotic cells at 10 uM incubated for 24 hrs by flow cytometry analysis (reference value: 0.35 %); assay type: functional
MDA-MB-231 [4] = assay: Induction of late apoptosis in human MDA-MB-231 cells assessed as increase in rate of formation of pycnotic nuclei at 10 uM by Hoechst 33342 and PI staining based fluorescence microscopic analysis; assay type: functional, cell-based; conditions: TDE = time-dependent effect
MCF7 [5] = assay: Cytotoxicity against human MCF7 cells assessed as reduction in cell viability incubated for 24 hrs by ATP based luminometry; assay type: functional; conditions: MCF7, 24 h
MDA-MB-231 [6] = assay: Induction of cell death in human MDA-MB-231 cells assessed as downregulation of MLKL gene at 10 uM measured after 48 hrs by RT-PCR analysis; assay type: functional, cell-based
MDA-MB-231 [7] = assay: Induction of endoplasmic reticulum stress in human MDA-MB-231 cells assessed as BIP expression at 10 uM incubated for 24 hrs by Western blot analysis (reference value: 1); assay type: functional
MCF7 [8] = assay: Induction of cell death in human MCF7 cells assessed as downregulation of MLKL gene at 10 uM measured after 48 hrs by RT-PCR analysis; assay type: functional, cell-based
[9] = Induction of caspase 3/7 activity in human MCF7 cells assessed as induction of apoptosis by measuring early apoptotic cells at 10 uM incubated for 24 hrs by flow cytometry analysis (reference value: 0.70 %); assay type: functional
MCF7 [10] = assay: Induction of apoptosis in human MCF7 cells assessed as cleaved pro-caspase 3 level at 10 uM incubated for 24 hrs by Western blot analysis (reference value: 1); assay type: functional
MCF7 [11] = assay: Induction of apoptosis in human MCF7 cells assessed as viable cells at 10 uM incubated for 24 hrs by annexin V-FITC and PI staining based flow cytometry analysis (reference value: 69.60 %); assay type: functional; conditions: read-out: Activity
MCF7 [12] = assay: Induction of apoptosis in human MCF7 cells assessed as cleaved PARP level at 10 uM incubated for 24 hrs by Western blot analysis (reference value: 1); assay type: functional
MDA-MB-231 [13] = assay: Induction of cell death in human MDA-MB-231 cells assessed as downregulation of PARP gene at 10 uM measured after 48 hrs by RT-PCR analysis; assay type: functional, cell-based
MDA-MB-231 [14] = assay: Induction of apoptosis in human MDA-MB-231 cells assessed as PARP level at 10 uM incubated for 24 hrs by Western blot analysis (reference value: 1); assay type: functional
MCF7 [15] = assay: Induction of apoptosis in human MCF7 cells assessed as late apoptotic cells at 10 uM incubated for 24 hrs by annexin V-FITC and PI staining based flow cytometry analysis (reference value: 14.60 %); assay type: functional
MDA-MB-231 [16] = assay: Induction of apoptosis in human MDA-MB-231 cells assessed as cleaved pro-caspase 3 level at 10 uM incubated for 24 hrs by Western blot analysis (reference value: 1); assay type: functional
[17] = Induction of caspase 3/7 activity in human MDA-MB-231 cells assessed as induction of apoptosis by measuring viable cells at 10 uM incubated for 24 hrs by flow cytometry analysis (reference value: 97.25 %); assay type: functional
MDA-MB-231 [18] = assay: Induction of cell death in human MDA-MB-231 cells assessed as downregulation of RIPK gene at 10 uM measured after 48 hrs by RT-PCR analysis; assay type: functional, cell-based
MDA-MB-231 [19] = assay: Induction of early apoptosis in human MDA-MB-231 cells assessed as increase in rate of formation of pycnotic nuclei at 10 uM incubated for 24 hrs by Hoechst 33342 and PI staining based fluorescence microscopic analysis; assay type: functional, cell-based
[20] = Induction of caspase 3/7 activity in human MCF7 cells assessed as induction of apoptosis by measuring necrotic cells at 10 uM incubated for 24 hrs by flow cytometry analysis (reference value: 3.30 %); assay type: functional
MCF7 [21] = assay: Induction of cell death in human MCF7 cells assessed as downregulation of PARP gene at 10 uM measured after 48 hrs by RT-PCR analysis; assay type: functional, cell-based
MDA-MB-231 [22] = assay: Cytotoxicity against human MDA-MB-231 cells assessed as reduction in cell viability incubated for 24 hrs by ATP based luminometry; assay type: functional; conditions: MDA-MB-231, 24 h
MDA-MB-231 [23] = assay: Induction of cell death in human MDA-MB-231 cells assessed as upregulation of BECN1 gene at 10 uM measured after 48 hrs by RT-PCR analysis; assay type: functional, cell-based
MCF7 [24] = assay: Induction of cell death in human MCF7 cells assessed as downregulation of RIPK gene at 10 uM measured after 48 hrs by RT-PCR analysis; assay type: functional, cell-based
MDA-MB-231 [25] = assay: Induction of apoptosis in human MDA-MB-231 cells assessed as viable cells at 10 uM incubated for 24 hrs by annexin V-FITC and PI staining based flow cytometry analysis (reference value: 94.40 %); assay type: functional; conditions: read-out: Activity
MCF7 [26] = assay: Induction of cell death in human MCF7 cells assessed as downregulation of RIPK gene at 10 uM incubated for 48 hrs by RT-PCR analysis; assay type: functional, cell-based
MDA-MB-231 [27] = assay: Induction of late apoptosis in human MDA-MB-231 cells assessed as increase in PI […] at 10 uM by Hoechst 33342 and PI staining based fluorescence microscopic analysis; assay type: functional, cell-based; conditions: TDE = time-dependent effect
[28] = Induction of caspase 3/7 activity in human MDA-MB-231 cells assessed as induction of apoptosis by measuring late apoptotic cells at 10 uM incubated for 24 hrs by flow cytometry analysis (reference value: 1.55 %); assay type: functional
MCF7 [29] = assay: Induction of cell death in human MCF7 cells assessed as upregulation of TNFRSF10B gene at 10 uM incubated for 24 hrs by RT-PCR analysis; assay type: functional, cell-based
MDA-MB-231 [30] = assay: Induction of ROS production in human MDA-MB-231 cells at 10 uM incubated for 24 hrs by flow cytometry analysis relative to control; assay type: functional

For `COC(=O)[C@@]1(C)CC[C@]2(C)CC[C@]3(C)[C@H](C(=O)C=C4[C@@]5(C)C=C(C#N)C(=O)C(C)(C)[C@@H]5CC[C@]43C)[C@@H]2C1`, the “fold change (FC)” value (MCF7 [1]) was 0.3, the Activity (MCF7 [2]) was “Active” and the Activity [3] was 12.75%. The Activity (MDA-MB-231 [4]) was “Tde”, the IC50 (MCF7 [5]) was 11.7 µM and the Activity (MDA-MB-231 [6]) was “inactive”. For the same compound, the “fold change (FC)” value (MDA-MB-231 [7]) was 2, the Activity (MCF7 [8]) was “inactive” and the Activity [9] was 0.55%. The “fold change (FC)” value (MCF7 [10]) was 1.2, the viability at 10 µM (MCF7 [11]) was 70.7% and the “fold change (FC)” value (MCF7 [12]) was 4.5. The Activity (MDA-MB-231 [13]) was “inactive”, the “fold change (FC)” value (MDA-MB-231 [14]) was 0.6 and the Activity (MCF7 [15]) was 18.35%. The “fold change (FC)” value (MDA-MB-231 [16]) was 12.7, the Activity [17] was 10.35% and the Activity (MDA-MB-231 [18]) was “inactive”. For the same compound, the Activity (MDA-MB-231 [19]) was “Active”, the Activity [20] was 14.7% and the Activity (MCF7 [21]) was “inactive”. The IC50 (MDA-MB-231 [22]) was 6.83 µM, the Activity (MDA-MB-231 [23]) was “inactive” and the Activity (MCF7 [24]) was “inactive”. The viability at 10 µM (MDA-MB-231 [25]) was 25.2%, the Activity (MCF7 [26]) was “Active” and the Activity (MDA-MB-231 [27]) was “Tde”. For the same compound, the Activity [28] was 76.4%, the Activity (MCF7 [29]) was “Active” and the Activity (MDA-MB-231 [30]) was 49.6%.
